The record followed here is publication PMC3744326 (Synapse (New York, N.Y.), 2013).

Molecules are shown by their SMILES.

The assay has as its target T1, serotonin 5-HT1A receptor (Rattus norvegicus, UniProt P19327).
T1 sequence (P19327 1-422): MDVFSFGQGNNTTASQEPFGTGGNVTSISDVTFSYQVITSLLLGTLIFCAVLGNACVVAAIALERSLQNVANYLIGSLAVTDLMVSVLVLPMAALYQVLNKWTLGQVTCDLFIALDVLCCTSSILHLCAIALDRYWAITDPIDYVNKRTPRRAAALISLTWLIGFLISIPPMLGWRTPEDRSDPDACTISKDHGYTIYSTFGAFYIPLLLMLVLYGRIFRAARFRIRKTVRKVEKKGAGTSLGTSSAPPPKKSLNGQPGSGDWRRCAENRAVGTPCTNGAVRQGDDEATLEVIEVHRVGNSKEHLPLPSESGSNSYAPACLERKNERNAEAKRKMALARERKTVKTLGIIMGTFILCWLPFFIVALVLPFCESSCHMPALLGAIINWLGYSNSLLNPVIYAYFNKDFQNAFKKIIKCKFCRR
Description: [3H]WAY-100635 radioligand displacement in rat brain homogenates. Format: binding.

Usually Ki stands for the dissociation constant of the complex between target and ligand, obtained from inhibition or displacement. Read a high Ki as lower affinity.

As to `COc1ccccc1N1CCN(CCN(c2ccccn2)C(=O)[C@H]2CC[C@H](CF)CC2)CC1` [trans-mefway, N-{2-[4-(2'-methoxyphenyl)piperazinyl]ethyl}-N-(2-pyridyl)-N-(cis/trans-4'-[^18F]fluoromethylcyclohexane)-carboxamide], the affinity corresponds to a Ki of 0.84 nM. This lies in the sub-nanomolar range.
